# Assay results: PubChem BioAssay AID1963441 (Molecular Pharmacology Branch, DTP, NCI, 2024)
# Several values for one entry are separate records, joined by “and”; a condition that tells them apart may be missing. Equal entries are not always repeated.
# System: NCI-H1876 complex spheroid growth, % test/control
# Experiment: Anticancer human tumor NCI-H1876 cell line growth inhibition [Asc];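 also: compound exposure lasted 7 days starting three days after seeding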;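 as to viability, T/C: 100% = DMSO vehicle control wells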
# Conditions: for viability, T/C: stronger effect = lower value
# Summary of the method: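 Tumor cells were grown as multicellular spheroids with stromal HUVEC and mesenchymal stem cells and treated singly or in combination. Concentrations fell in half-log steps from the clinical Cmax, or from 10 microM where none was known.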
compound,measurement,setting,value
C#Cc1c(F)ccc2cc(O)cc(-c3ncc4c(N5CC6CCC(C5)N6)nc(OCC56CCCN5CC(F)C6)nc4c3F)c12 (stereo unspecified) + CCN1C(C(=O)NC23CCC(C(=O)O)(CC2)CC3)C(c2cccc(Cl)c2F)C2(C(=O)Nc3cc(Cl)ccc32)C12CCCCC2,IC50,"curve of first compound, second compound 0.00949 µM",> 10000 nM
same,IC50,"curve of first compound, second compound 0.03 µM",> 10000 nM
same,IC50,"curve of first compound, second compound 0.0949 µM",> 10000 nM
same,IC50,"curve of first compound, second compound 0.3 µM",> 10000 nM
same,IC50,"curve of first compound, second compound 0.949 µM",> 10000 nM
same,IC50,"curve of first compound, second compound 3 µM",> 10000 nM
same,"viability, T/C","second compound 0.00949 µM, first compound 0.0316 µM",89.2%
same,"viability, T/C","second compound 0.00949 µM, first compound 0.1 µM",97.2%
same,"viability, T/C","second compound 0.00949 µM, first compound 0.316 µM",98.5%
same,"viability, T/C","second compound 0.00949 µM, first compound 1 µM",95.6%
same,"viability, T/C","second compound 0.00949 µM, first compound 3.16 µM",98.1%
same,"viability, T/C","second compound 0.00949 µM, first compound 10 µM",87.1%
same,"viability, T/C","second compound 0.03 µM, first compound 0.0316 µM",94.8%
same,"viability, T/C","second compound 0.03 µM, first compound 0.1 µM",106%
same,"viability, T/C","second compound 0.03 µM, first compound 0.316 µM",98.5%
same,"viability, T/C","second compound 0.03 µM, first compound 1 µM",103%
same,"viability, T/C","second compound 0.03 µM, first compound 3.16 µM",95.3%
same,"viability, T/C","second compound 0.03 µM, first compound 10 µM",89.8%
same,"viability, T/C","second compound 0.0949 µM, first compound 0.0316 µM",101%
same,"viability, T/C","second compound 0.0949 µM, first compound 0.1 µM",112%
same,"viability, T/C","second compound 0.0949 µM, first compound 0.316 µM",102%
same,"viability, T/C","second compound 0.0949 µM, first compound 1 µM",97.7%
same,"viability, T/C","second compound 0.0949 µM, first compound 3.16 µM",96.3%
same,"viability, T/C","second compound 0.0949 µM, first compound 10 µM",88.4%
same,"viability, T/C","second compound 0.3 µM, first compound 0.0316 µM",105%
same,"viability, T/C","second compound 0.3 µM, first compound 0.1 µM",106%
same,"viability, T/C","second compound 0.3 µM, first compound 0.316 µM",114%
same,"viability, T/C","second compound 0.3 µM, first compound 1 µM",99.8%
same,"viability, T/C","second compound 0.3 µM, first compound 3.16 µM",96.5%
same,"viability, T/C","second compound 0.3 µM, first compound 10 µM",99.5%
same,"viability, T/C","second compound 0.949 µM, first compound 0.0316 µM",118%
same,"viability, T/C","second compound 0.949 µM, first compound 0.1 µM",120%
same,"viability, T/C","second compound 0.949 µM, first compound 0.316 µM",104%
same,"viability, T/C","second compound 0.949 µM, first compound 1 µM",112%
same,"viability, T/C","second compound 0.949 µM, first compound 3.16 µM",116%
same,"viability, T/C","second compound 0.949 µM, first compound 10 µM",95%
same,"viability, T/C","second compound 3 µM, first compound 0.0316 µM",97.4%
same,"viability, T/C","second compound 3 µM, first compound 0.1 µM",88%
same,"viability, T/C","second compound 3 µM, first compound 0.316 µM",85.2%
same,"viability, T/C","second compound 3 µM, first compound 1 µM",96.9%
same,"viability, T/C","second compound 3 µM, first compound 3.16 µM",102%
same,"viability, T/C","second compound 3 µM, first compound 10 µM",79.2%
O=C(c1ccc(F)c(F)c1Nc1ccc(I)cc1F)N1CC(O)([C@@H]2CCCCN2)C1,"viability, T/C",compound 0.00316 µM,101% and 103% (2×)
same,"viability, T/C",compound 0.01 µM,86.9% and 95% and 94%
same,"viability, T/C",compound 0.0316 µM,93.7% and 92.9% and 99%
same,"viability, T/C",compound 0.1 µM,97.5% and 91.4% and 95%
same,"viability, T/C",compound 0.316 µM,86.5% and 84.5% and 83.9%
same,"viability, T/C",compound 1 µM,79.9% and 75.1% and 76.9%
same,IC50,curve of compound,> 1000 nM
NC(=O)C(=Cn1cnc(-c2cc(C(F)(F)F)cc(C(F)(F)F)c2)n1)c1cncnc1 + Cc1c(S(C)(=O)=O)c(-c2cc(F)cc(N3CCN(c4ccc(NS(=O)(=O)c5ccc(NC(CCN6CCC(C(=O)OCCCP(=O)(O)O)CC6)CSc6ccccc6)c(S(=O)(=O)C(F)(F)F)c5)cc4)CC3)c2)c(-c2ccc(Cl)cc2)n1C(C)C,IC50,"curve of first compound, second compound 0.0316 µM",> 300 nM
same,IC50,"curve of first compound, second compound 0.1 µM",> 300 nM
same,IC50,"curve of first compound, second compound 0.316 µM",273 nM
same,IC50,"curve of first compound, second compound 1 µM",223 nM
same,IC50,"curve of first compound, second compound 3.16 µM",163 nM
same,IC50,"curve of first compound, second compound 10 µM",149 nM
same,"viability, T/C","second compound 0.0316 µM, first compound 0.000949 µM",105%
same,"viability, T/C","second compound 0.0316 µM, first compound 0.003 µM",102%
same,"viability, T/C","second compound 0.0316 µM, first compound 0.00949 µM",94.4%
same,"viability, T/C","second compound 0.0316 µM, first compound 0.03 µM",97.8%
same,"viability, T/C","second compound 0.0316 µM, first compound 0.0949 µM",105%
same,"viability, T/C","second compound 0.0316 µM, first compound 0.3 µM",55.1%
same,"viability, T/C","second compound 0.1 µM, first compound 0.000949 µM",99.3%
same,"viability, T/C","second compound 0.1 µM, first compound 0.003 µM",112%
same,"viability, T/C","second compound 0.1 µM, first compound 0.00949 µM",113%
same,"viability, T/C","second compound 0.1 µM, first compound 0.03 µM",106%
same,"viability, T/C","second compound 0.1 µM, first compound 0.0949 µM",101%
same,"viability, T/C","second compound 0.1 µM, first compound 0.3 µM",52.5%
same,"viability, T/C","second compound 0.316 µM, first compound 0.000949 µM",102%
same,"viability, T/C","second compound 0.316 µM, first compound 0.003 µM",107%
same,"viability, T/C","second compound 0.316 µM, first compound 0.00949 µM",91.3%
same,"viability, T/C","second compound 0.316 µM, first compound 0.03 µM",97.1%
same,"viability, T/C","second compound 0.316 µM, first compound 0.0949 µM",96.3%
same,"viability, T/C","second compound 0.316 µM, first compound 0.3 µM",45.8%
same,"viability, T/C","second compound 1 µM, first compound 0.000949 µM",99.6%
same,"viability, T/C","second compound 1 µM, first compound 0.003 µM",96.9%
same,"viability, T/C","second compound 1 µM, first compound 0.00949 µM",89.7%
same,"viability, T/C","second compound 1 µM, first compound 0.03 µM",96%
same,"viability, T/C","second compound 1 µM, first compound 0.0949 µM",88.7%
same,"viability, T/C","second compound 1 µM, first compound 0.3 µM",36.6%
same,"viability, T/C","second compound 3.16 µM, first compound 0.000949 µM",101%
same,"viability, T/C","second compound 3.16 µM, first compound 0.003 µM",92.5%
same,"viability, T/C","second compound 3.16 µM, first compound 0.00949 µM",95.5%
same,"viability, T/C","second compound 3.16 µM, first compound 0.03 µM",92.9%
same,"viability, T/C","second compound 3.16 µM, first compound 0.0949 µM",69.4%
same,"viability, T/C","second compound 3.16 µM, first compound 0.3 µM",27.9%
same,"viability, T/C","second compound 10 µM, first compound 0.000949 µM",109%
same,"viability, T/C","second compound 10 µM, first compound 0.003 µM",99.9%
same,"viability, T/C","second compound 10 µM, first compound 0.00949 µM",90%
same,"viability, T/C","second compound 10 µM, first compound 0.03 µM",92.5%
same,"viability, T/C","second compound 10 µM, first compound 0.0949 µM",66.9%
same,"viability, T/C","second compound 10 µM, first compound 0.3 µM",23.1%
